Results published in ChEMBL document CHEMBL4622868, “Design and synthesis of amphiphilic 2-hydroxybenzylphosphonium salts with antimicrobial and antitumor dual action” (Bioorg Med Chem Lett, 2020).
Calls of active or inactive are those of the source. No cut-off for these calls is given here.

Columns and labels:
[1] = test system: Staphylococcus aureus; test: Antibacterial activity against Staphylococcus aureus ATCC 209p; assay type: functional
[2] = test system: Staphylococcus aureus; test: Bactericidal activity against Staphylococcus aureus ATCC 209p; assay type: functional
[3] = test system: Bacillus cereus; test: Antibacterial activity against Bacillus cereus; assay type: functional
[4] = test system: Bacillus cereus; test: Bactericidal activity against Bacillus cereus; assay type: functional
[5] = test system: Trichophyton mentagrophytes; test: Antifungal activity against Trichophyton mentagrophytes; assay type: functional
[6] = test system: Trichophyton mentagrophytes; test: Fungicidal activity against Trichophyton mentagrophytes; assay type: functional
[7] = test system: Candida albicans; test: Antifungal activity against Candida albicans; assay type: functional
[8] = test system: Candida albicans; test: Fungicidal activity against Candida albicans; assay type: functional
[9] = test system: Staphylococcus aureus; test: Antibacterial activity against clinical isolate amoxicillin and ciprofloxacin resistance Staphylococcus aureus; assay type: functional
[10] = test system: Staphylococcus aureus; test: Bactericidal activity against clinical isolate amoxicillin and ciprofloxacin resistance Staphylococcus aureus; assay type: functional
[11] = test system: Staphylococcus aureus; test: Antibacterial activity against clinical isolate amoxicillin resistance Staphylococcus aureus; assay type: functional
[12] = test system: Staphylococcus aureus; test: Bactericidal activity against clinical isolate amoxicillin resistance Staphylococcus aureus; assay type: functional
[13] = Biosurfactant activity assessed as critical micelle concentration of compound by tensiometry analysis; assay type: functional
[14] = Biosurfactant activity assessed as Critical micelle concentration of compound by conductometry analysis; assay type: physicochemical
[15] = Hemolytic activity against RBC (unknown origin) at 480 uM; assay type: ADME, cell-based, Erythrocyte; details: red blood cells (erythrocytes); read-out: Activity
[16] = Hemolytic activity against RBC (unknown origin) at 240 uM; assay type: ADME, cell-based, Erythrocyte; details: red blood cells (erythrocytes); read-out: Activity
[17] = Hemolytic activity against RBC (unknown origin) at 120 uM; assay type: ADME, cell-based, Erythrocyte; details: red blood cells (erythrocytes); read-out: Activity
[18] = Hemolytic activity against RBC (unknown origin) at 60 uM; assay type: ADME, cell-based, Erythrocyte; details: red blood cells (erythrocytes); read-out: Activity
[19] = Hemolytic activity against RBC (unknown origin) at 40 uM; assay type: ADME, cell-based, Erythrocyte; details: red blood cells (erythrocytes); read-out: Activity
[20] = Hemolytic activity against RBC (unknown origin) at 20 uM; assay type: ADME, cell-based, Erythrocyte; details: red blood cells (erythrocytes); read-out: Activity
[21] = Hemolytic activity against RBC (unknown origin) at 10 uM; assay type: ADME, cell-based, Erythrocyte; details: red blood cells (erythrocytes); read-out: Activity
[22] = Hemolytic activity against RBC (unknown origin) at 5 uM; assay type: ADME, cell-based, Erythrocyte; details: red blood cells (erythrocytes); read-out: Activity
[23] = Hemolytic activity against RBC (unknown origin) at 1 uM; assay type: ADME, cell-based, Erythrocyte; details: red blood cells (erythrocytes); read-out: Activity
[24] = test system: M-HeLa; test: Cytotoxicity against human M-HeLa cells; assay type: functional, cell-based
[25] = test system: MCF7; test: Cytotoxicity against human MCF7 cells; assay type: functional, cell-based
[26] = test system: HepG2; test: Cytotoxicity against human HepG2 cells; assay type: functional, cell-based; details: read-out: IC50
[27] = test system: PANC-1; test: Cytotoxicity against human PANC1 cells; assay type: functional, cell-based
[28] = Cytotoxicity against human Chang cells; assay type: cell-based
[29] = Selectivity index, ratio of IC50 for human Chang cells to IC50 for human M-HeLa cells
[30] = Selectivity index, ratio of IC50 for human Chang cells to IC50 for human MCF7 cells
[31] = Selectivity index, ratio of IC50 for human Chang cells to IC50 for human HepG2 cells
[32] = Selectivity index, ratio of IC50 for human Chang cells to IC50 for human PANC1 cells
[33] = test system: Staphylococcus aureus; test: Antibacterial activity against Staphylococcus aureus ATCC 209p assessed as increase in crystal violet uptake at 2 uM incubated for 30 mins (reference value: 1.8 %); assay type: functional
[34] = test system: M-HeLa; test: Induction of apoptosis in human M-HeLa cells assessed as viable cells at 3 uM incubated for 24 hrs by Annexin-V FITC and propidium iodide staining based flow cytometry analysis (reference value: 90.48 %); assay type: functional; details: read-out: Activity
[35] = test system: M-HeLa; test: Induction of apoptosis in human M-HeLa cells assessed as early apoptotic cells at 3 uM incubated for 24 hrs by Annexin-V FITC and propidium iodide staining based flow cytometry analysis (reference value: 7.85 %); assay type: functional
[36] = test system: M-HeLa; test: Induction of apoptosis in human M-HeLa cells assessed as late apoptotic cells at 3 uM incubated for 24 hrs by Annexin-V FITC and propidium iodide staining based flow cytometry analysis (reference value: 0.36 %); assay type: functional
[37] = test system: M-HeLa; test: Induction of apoptosis in human M-HeLa cells assessed as necrotic cells at 3 uM incubated for 24 hrs by Annexin-V FITC and propidium iodide staining based flow cytometry analysis (reference value: 1.32 %); assay type: functional
[38] = test system: M-HeLa; test: Induction of apoptosis in human M-HeLa cells assessed as viable cells at 6 uM incubated for 24 hrs by Annexin-V FITC and propidium iodide staining based flow cytometry analysis (reference value: 90.48 %); assay type: functional; details: read-out: Activity
[39] = test system: M-HeLa; test: Induction of apoptosis in human M-HeLa cells assessed as early apoptotic cells at 6 uM incubated for 24 hrs by Annexin-V FITC and propidium iodide staining based flow cytometry analysis (reference value: 7.85 %); assay type: functional
[40] = test system: M-HeLa; test: Induction of apoptosis in human M-HeLa cells assessed as late apoptotic cells at 6 uM incubated for 24 hrs by Annexin-V FITC and propidium iodide staining based flow cytometry analysis (reference value: 0.36 %); assay type: functional
[41] = test system: M-HeLa; test: Induction of apoptosis in human M-HeLa cells assessed as necrotic cells at 6 uM incubated for 24 hrs by Annexin-V FITC and propidium iodide staining based flow cytometry analysis (reference value: 1.32 %); assay type: functional
[42] = test system: M-HeLa; test: Induction of apoptosis in human M-HeLa cells assessed as early apoptotic cells incubated for 24 hrs by Annexin-V FITC and propidium iodide staining based flow cytometry analysis; assay type: functional, cell-based
[43] = test system: M-HeLa; test: Induction of mitochondrial membrane potential loss in human M-HeLa cells assessed as decrease in red fluorescence intensity at 3 uM by JC10 staining based flow cytometry analysis (reference value: 99.70 %); assay type: functional; set-up: scale not given: the % may be the effect or the level left
[44] = test system: M-HeLa; test: Induction of mitochondrial membrane potential loss in human M-HeLa cells assessed as decrease in red fluorescence intensity at 6 uM by JC10 staining based flow cytometry analysis (reference value: 99.70 %); assay type: functional; set-up: scale not given: the % may be the effect or the level left
[45] = test system: M-HeLa; test: Induction of mitochondrial membrane potential loss in human M-HeLa cells assessed as decrease in red fluorescence intensity by JC10 staining based flow cytometry analysis; assay type: functional, cell-based

## CCCCCCCCCCCCCCCCCC[P+](Cc1ccccc1O)(c1ccccc1)c1ccccc1.[Cl-]
[1]
  MIC: 108 µM
[2]
  MBC: 215 µM
[3]
  MIC: 108 µM
[4]
  MBC: 215 µM
[5]
  MIC: inactive
[6]
  MFC: inactive
[7]
  MIC: inactive
[8]
  MFC: inactive
[9]
  MIC: inactive
[10]
  MBC: inactive
[11]
  MIC: inactive
[12]
  MBC: inactive
[13]
  CMC: 0.04 mM
[14]
  CMC: 0.04 mM
[15]
  hemolysis at 480 µM: 100%
[16]
  hemolysis at 240 µM: 100%
[17]
  hemolysis at 120 µM: 15.6%
[18]
  hemolysis at 60 µM: 2.5%
[19]
  hemolysis at 40 µM: 1.4%
[20]
  hemolysis at 20 µM: 1.2%
[21]
  hemolysis at 10 µM: 0%
[22]
  hemolysis at 5 µM: 0%
[23]
  hemolysis at 1 µM: 0%
[24]
  IC50: 68 µM
[25]
  IC50: 49 µM
[26]
  IC50: 73 µM
[27]
  IC50: 65 µM
[28]
  IC50: 69 µM
[29]
  Ratio IC50: 1
[30]
  Ratio IC50: 1.4
[31]
  Ratio IC50: 0.94
[32]
  Ratio IC50: 1.1

## CCCCCCCCCCCC[P+](Cc1ccccc1O)(c1ccccc1)c1ccccc1.[Cl-]
[1]
  MIC: 1 µM
[2]
  MBC: 2 µM
[3]
  MIC: 0.9 µM
[4]
  MBC: 3.8 µM
[5]
  MIC: 7.8 µM
[6]
  MFC: 7.8 µM
[7]
  MIC: 7.8 µM
[8]
  MFC: 7.8 µM
[9]
  MIC: 2 µM
[10]
  MBC: 8 µM
[11]
  MIC: 4 µM
[12]
  MBC: 16 µM
[33]
  Activity: 24 - 82.7%
[15]
  hemolysis at 480 µM: 65.4%
[16]
  hemolysis at 240 µM: 42.3%
[17]
  hemolysis at 120 µM: 21.2%
[18]
  hemolysis at 60 µM: 12.2%
[19]
  hemolysis at 40 µM: 2.9%
[20]
  hemolysis at 20 µM: 1.8%
[21]
  hemolysis at 10 µM: 1.3%
[22]
  hemolysis at 5 µM: 0.9%
[23]
  hemolysis at 1 µM: 0%
[24]
  IC50: 2.6 µM
[25]
  IC50: 7.2 µM
[26]
  IC50: 9.8 µM
[27]
  IC50: 25.3 µM
[28]
  IC50: 42.8 µM
[29]
  Ratio IC50: 16.4
[30]
  Ratio IC50: 5.9
[31]
  Ratio IC50: 4.5
[32]
  Ratio IC50: 1.7
[34]
  viability at 3 µM: 46.4%
[35]
  Activity: 39.26%
[36]
  Activity: 9.78%
[37]
  Activity: 4.57%
[38]
  viability at 6 µM: 33.4%
[39]
  Activity: 53.31%
[40]
  Activity: 10.89%
[41]
  Activity: 2.42%
[42]
  Activity: Dose-dependent effect
[43]
  Activity: 76.61%
[44]
  Activity: 39.17%
[45]
  Activity: Dose-dependent effect

## CCCCCCCCCC[P+](Cc1ccccc1O)(c1ccccc1)c1ccccc1.[Cl-]
[1]
  MIC: 1 µM
[2]
  MBC: 4.1 µM
[3]
  MIC: 1.9 µM
[4]
  MBC: 4.1 µM
[5]
  MIC: 16.6 µM
[6]
  MFC: 16.6 µM
[7]
  MIC: 16.6 µM
[8]
  MFC: 16.6 µM
[9]
  MIC: 8.2 µM
[10]
  MBC: 32.8 µM
[11]
  MIC: 8.2 µM
[12]
  MBC: 16.4 µM
[33]
  Activity: 24 - 82.7%
[15]
  hemolysis at 480 µM: 16.4%
[16]
  hemolysis at 240 µM: 9.6%
[17]
  hemolysis at 120 µM: 5.9%
[18]
  hemolysis at 60 µM: 2.8%
[19]
  hemolysis at 40 µM: 2.3%
[20]
  hemolysis at 20 µM: 1.3%
[21]
  hemolysis at 10 µM: 0.8%
[22]
  hemolysis at 5 µM: 0%
[23]
  hemolysis at 1 µM: 0%
[24]
  IC50: 3.4 µM
[25]
  IC50: 13.2 µM
[26]
  IC50: 12.3 µM
[27]
  IC50: 26.3 µM
[28]
  IC50: 45.7 µM
[29]
  Ratio IC50: 13.4
[30]
  Ratio IC50: 3.5
[31]
  Ratio IC50: 3.7
[32]
  Ratio IC50: 1.7

## CCCCCCCCCCCCCC[P+](Cc1ccccc1O)(c1ccccc1)c1ccccc1.[Cl-]
[1]
  MIC: 3.6 µM
[2]
  MBC: 14.8 µM
[3]
  MIC: 3.6 µM
[4]
  MBC: 478 µM
[5]
  MIC: 478 µM
[6]
  MFC: inactive
[7]
  MIC: 478 µM
[8]
  MFC: inactive
[9]
  MIC: 7.2 µM
[10]
  MBC: 28.8 µM
[11]
  MIC: 7.2 µM
[12]
  MBC: 28.8 µM
[15]
  hemolysis at 480 µM: 100%
[16]
  hemolysis at 240 µM: 100%
[17]
  hemolysis at 120 µM: 100%
[18]
  hemolysis at 60 µM: 74%
[19]
  hemolysis at 40 µM: 0.3%
[20]
  hemolysis at 20 µM: 0%
[21]
  hemolysis at 10 µM: 0%
[22]
  hemolysis at 5 µM: 0%
[23]
  hemolysis at 1 µM: 0%
[24]
  IC50: 3.5 µM
[25]
  IC50: 6.6 µM
[26]
  IC50: 6.6 µM
[27]
  IC50: 25 µM
[28]
  IC50: 42.3 µM
[29]
  Ratio IC50: 12.1
[30]
  Ratio IC50: 6.4
[31]
  Ratio IC50: 6.4
[32]
  Ratio IC50: 1.7
